Where two headings read alike, the source gives them in different places. Positions of bridges follow the written chain, without caps; N, C: chain ends. Non-standard residues stand in square brackets, D forms with d. Residues, ends and D or L forms follow the SMILES beside them. No end group written: not given here. 2Nal = N[C@@H](Cc1ccc2ccccc2c1)C(=O)O; d2Nal = N[C@H](Cc1ccc2ccccc2c1)C(=O)O; Nle = CCCC[C@H](N)C(=O)O
Legend:
[1] = target: T1, MC5-R (Homo sapiens, UniProt P33032); test: Competitive inhibition assay using [I^125]-NDP-α-MSH, hMC5-R membranes; format: binding; design: expressed in transfected cells; details: 1 μM test compound; read-out: Inhibition at 1 μM (NDP-α-MSH) In Normal System, MC5-R
T1 sequence (P33032 whole entry): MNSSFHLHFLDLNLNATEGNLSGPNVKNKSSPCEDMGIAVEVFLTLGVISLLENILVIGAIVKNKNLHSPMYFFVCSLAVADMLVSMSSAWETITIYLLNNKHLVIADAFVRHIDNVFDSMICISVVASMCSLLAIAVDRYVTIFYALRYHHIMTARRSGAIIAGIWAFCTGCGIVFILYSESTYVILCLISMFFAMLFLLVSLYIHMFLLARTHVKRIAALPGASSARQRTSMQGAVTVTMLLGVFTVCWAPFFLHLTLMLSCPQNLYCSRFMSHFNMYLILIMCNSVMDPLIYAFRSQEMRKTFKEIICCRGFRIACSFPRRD
Summary of the method: (§1)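 Tracer was 0.4 nM for MC3-R and MC5-R, 0.2 nM for MC4-R and 0.1 nM for MC1-R. Bound radioactivity was gamma-counted after filtration; values are triplicate means, with results below 0% reported as 0%.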

[2] = target: T2, human MC1-R (Homo sapiens, UniProt Q01726); test: Competitive inhibition assay using [I^125]-NDP-α-MSH, human MC1-R (separate experiments); format: binding; details: separate experiments with human MC1-R; read-out: Ki (nM) (NDP-α-MSH) in a normal system, human MC1-R
T2 construct: expressed in transfected cells
T2 sequence (Q01726 whole entry): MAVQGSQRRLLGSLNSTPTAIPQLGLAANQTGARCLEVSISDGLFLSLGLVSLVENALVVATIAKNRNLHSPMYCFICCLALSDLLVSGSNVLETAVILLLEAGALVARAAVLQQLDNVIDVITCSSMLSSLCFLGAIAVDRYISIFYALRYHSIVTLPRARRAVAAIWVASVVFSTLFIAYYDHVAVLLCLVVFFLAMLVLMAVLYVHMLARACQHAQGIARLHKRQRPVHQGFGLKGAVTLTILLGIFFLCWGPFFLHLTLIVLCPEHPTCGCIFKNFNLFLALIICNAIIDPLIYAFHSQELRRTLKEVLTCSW

[3] = Penile erection induction in male rats; format: in vivo; details: rat, ICV
Summary of the method: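 Male Sprague-Dawley rats (200-250 g), groups of 4-8, dosed IV or ICV at various doses and observed individually for penile erections. Only statistically relevant increases over vehicle-control mean PEs count as induction; IV responses below 1.0 PEs/rat treated as equivocal, some retested ICV.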

[4] = target: T3, MC4-R (Homo sapiens, UniProt P32245); test: Competitive inhibition assay using [I^125]-NDP-α-MSH, hMC4-R membranes; format: binding; design: host or cells: TREx-293 (HEK-293 stably expressing Tet repressor); details: 1 μM test compound; read-out: Inhibition at 1 μM (NDP-α-MSH) In Normal System, MC4-R
T3 sequence (P32245 whole entry): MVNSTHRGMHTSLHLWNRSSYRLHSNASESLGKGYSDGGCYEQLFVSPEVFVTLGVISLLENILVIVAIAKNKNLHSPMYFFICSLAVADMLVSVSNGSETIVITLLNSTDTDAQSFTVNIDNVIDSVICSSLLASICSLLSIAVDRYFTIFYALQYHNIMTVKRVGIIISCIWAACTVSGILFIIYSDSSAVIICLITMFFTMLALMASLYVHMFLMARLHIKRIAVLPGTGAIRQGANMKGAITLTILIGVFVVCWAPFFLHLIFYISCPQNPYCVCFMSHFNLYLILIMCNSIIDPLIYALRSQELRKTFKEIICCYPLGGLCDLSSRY
Summary of the method: as §1

[5] = target: T3, MC4-R; test: Assay for neutral antagonist, Schild analysis (pA2) against NDP-α-MSH; format: cell-based; design: expressed in transfected cells; host or cells: HEK-293; details: Schild analysis vs NDP-α-MSH; read-out: pA2 value as antagonist at MC4-R in a normal system (converted)
Method: Assay for Neutral Antagonist. […] These studies were carried out in HEK-293 cells expressing the MC4-R receptor. Cells were incubated with the compounds in the presence of the agonist NDP-α-MSH and the extent of antagonism was measured by the decrease in the level of intracellular cAMP. Screening the compounds for antagonists was done at a single concentration of NDP-α-MSH (1.0 nM) over a compound concentration range of 0.5-5000 nM.
Experimental details were similar to the analysis for agonistic activity described above. Briefly, cells were pre-incubated for 30 minutes with the test compounds at concentrations between 0.5 nM and 5000 nM. The cells were then stimulated with NDP-α-MSH at a concentration of 1 nM for 1 hour. For Schild analysis, the interactions were studied using at least 3 concentrations of the compounds, separated by a log unit, over a full range of the agonist (0.005-5000 nM). cAMP levels was measured in the cell lysates after appropriate dilution. Nonlinear regression analysis with Prism Graph-Pad software was used for Schild analysis and to obtain EC50 values. pA2 values were derived from the Schild plot of the data.

[6] = target: T3, MC4-R; test: cAMP agonist stimulation, low receptor density system (0.1 ng/mL doxycycline); details: 0.1 ng/mL doxycycline, low receptor density hMC4-R system; NDP-α-MSH maximal cAMP = 1.0
[7] = target: T4, MC3-R (Homo sapiens, UniProt P41968); test: Competitive inhibition assay using [I^125]-NDP-α-MSH, hMC3-R membranes; format: binding; design: expressed in transfected cells; details: 1 μM test compound; read-out: Inhibition at 1 μM (NDP-α-MSH) In Normal System, MC3-R
T4 sequence (P41968 whole entry): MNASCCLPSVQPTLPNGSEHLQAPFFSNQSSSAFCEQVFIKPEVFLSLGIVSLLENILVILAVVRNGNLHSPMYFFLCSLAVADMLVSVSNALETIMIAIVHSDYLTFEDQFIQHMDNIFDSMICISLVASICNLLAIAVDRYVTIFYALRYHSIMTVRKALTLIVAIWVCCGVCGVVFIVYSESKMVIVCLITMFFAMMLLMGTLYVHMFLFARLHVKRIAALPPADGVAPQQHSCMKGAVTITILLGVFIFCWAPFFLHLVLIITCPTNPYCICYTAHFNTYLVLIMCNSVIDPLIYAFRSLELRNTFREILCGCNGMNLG
Summary of the method: as §1

[8] = target: T3, MC4-R; test: cAMP agonist stimulation, high receptor density system (10 ng/mL doxycycline); details: for Efficacy/Intrinsic Activity: 10 ng/mL doxycycline, high receptor density hMC4-R system, NDP-α-MSH maximal cAMP = 1.0
[9] = target: T5, MC1-R (Mus musculus, UniProt Q01727); test: Competitive inhibition assay using [I^125]-NDP-α-MSH, B-16 mouse melanoma cell membranes; format: binding; details: 1 μM test compound; read-out: Inhibition at 1 μM (NDP-α-MSH) In Normal System, MC1-R
T5 construct: B-16 mouse melanoma cells (containing MC1-R); endogenous in cells
T5 sequence (Q01727 whole entry): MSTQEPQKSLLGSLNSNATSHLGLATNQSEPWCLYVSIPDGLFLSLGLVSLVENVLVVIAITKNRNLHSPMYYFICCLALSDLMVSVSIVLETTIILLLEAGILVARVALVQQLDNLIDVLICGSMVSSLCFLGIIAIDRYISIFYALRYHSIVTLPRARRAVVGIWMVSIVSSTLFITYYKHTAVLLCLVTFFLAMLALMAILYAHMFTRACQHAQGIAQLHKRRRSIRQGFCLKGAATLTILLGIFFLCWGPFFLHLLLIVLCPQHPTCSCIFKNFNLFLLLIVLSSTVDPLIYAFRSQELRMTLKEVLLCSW
Summary of the method: as §1

[10] = ICV food intake and body weight change; format: in vivo; details: rat, 1 nmol
Summary of the method: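 Rats fitted with intracerebroventricular cannulas and fed ad libitum got a single ICV dose of vehicle or compound (1-3 nmol). Food intake and body-weight change over the 24 h after dosing were compared with a 1-week vehicle baseline. Values at 48 h and 72 h were also recorded to follow return to baseline.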

[11] = target: T3, MC4-R; test: cAMP functional activity assay in HEK-293 cells, normal system; format: cell-based; design: expressed in transfected cells; host or cells: HEK-293
[12] = functional antagonists known not to cause PE response, cited from earlier work
[13] = target: T5, MC1-R; test: cAMP functional activity assay in B-16 mouse melanoma cells; format: cell-based; details: 1 μM concentration where stated
[14] = target: T4, MC3-R; test: cAMP functional activity assay in HEK-293 cells; format: cell-based; design: expressed in transfected cells; host or cells: HEK-293; details: 1 μM concentration where stated
[15] = target: T1, MC5-R; test: cAMP functional activity assay in HEK-293 cells; format: cell-based; design: expressed in transfected cells; host or cells: HEK-293; details: 1 μM concentration where stated
[16] = IP (and IN) food intake, mice; format: in vivo; details: mouse, IP, 4 hours
Summary of the method: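 Male Sprague-Dawley rats dosed IV (0.5-3, up to 10 mg/kg) or IP (0.5-10, up to 50 mg/kg); male C57BL/6 mice dosed IP. Change in food intake and body weight over 24 h post-dose versus 1-week vehicle baseline, with 48 and 72 h reversal checks.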

[17] = IV and IP food intake and body weight change, rats; format: in vivo; details: rat, 10 mg/kg, 24 hours
Method: IV and IP food intake and body weight change. Change in food intake and body weight was evaluated for selected compounds. Male Sprague-Dawley rats or male C57BL/6 mice were utilized. Animals were individually housed in conventional plexiglass hanging cages and maintained on a controlled 12 hour on/off light cycle. Water and powdered (LabDiet, 5P00 Prolab RMH 3000) or pelleted (Harlan Teklad 2018 18% Protein Rodent Diet) food was provided ad libitum. For 1 week before treatment, 24-hour food intake and body weight change was recorded to assess a baseline for the group during vehicle treatment. The rats were dosed IV with vehicle or selected compounds (0.5-3 mg/kg, and in some cases up to 10 mg/Kg) or dosed intraperitoneally (IP) with vehicle or selected compounds (0.5-10 mg/kg, and in some cases up to 50 mg/kg). Mice were dosed IP. The changes in body weight and food intake for the 24 hour period after dosing were determined. The changes in body weight and food intake for the 48 hour and 72 hour periods after dosing were also measured to determined reversal of changes in body weight and food intake effects back to baseline levels.

Row | Efficacy/Intrinsic Activity [6] | Efficacy/Intrinsic Activity [8] | Molecule | inhibition at 1 µM [1] [%] | inhibition at 1 µM [4] [%] | Kb [5] [nM] | inhibition at 1 µM [7] [%] | inhibition at 1 µM [9] [%] | Penile Erection ICV [12] | Penile Erection IV [12] | other results
1 | None | None | CCCC[C@H](NC(C)=O)C(=O)N[C@H]1CC(=O)NCCCC[C@@H](C(=O)O)NC(=O)[C@H](Cc2ccc3ccccc3c2)NC(=O)[C@H](CCCNC(=N)N)NC(=O)[C@@H](Cc2ccc3ccccc3c2)NC(=O)[C@H](Cc2c[nH]cn2)NC1=O [Example 34, Ac-Nle-cyclo(Asp-His-D-Nal 2-Arg-Nal 2-Lys)-OH] (Ac-[Nle]DH[d2Nal]R[2Nal]K-OH; lactam 2-7) | 100 | 100 | 7.94 | 98 | 102 |  |  | Ki [2]: 0.25 nM; Penile Erection ICV [3]: No; PE efficacy ([3]; 3 nanomole): inactive; 24 hour increase in food intake [10]: 12 g; increase in body weight ([10]; 24 hours): 16 g; functional status at MC4-R in cAMP assay ([11]; at 1 nM dose): inactive
2 | None | None | AGRP (83-132): AgRP (83-132); functional antagonist known not to cause PE response (SSRRCVRLHESCLGQQVPCCDPCATCYCRFFNAFCYCRKLGTAMNPCSRT; ends and bridges not checked; cysteine pairing not given here) [reference compound] |  |  |  |  |  | No | No | 
3 |  |  | cyclo 2,7[Ac-Nle-Asp-His-D-Nal 2-Arg-Trp-Lys]-NH2 [SHU-9119] |  |  |  |  |  | No | No | 

Row | Molecule | Efficacy/Intrinsic Activity [6] | Efficacy/Intrinsic Activity [8] | inhibition at 1 µM [1] [%] | inhibition at 1 µM [4] [%] | Kb [5] [nM] | inhibition at 1 µM [7] [%] | inhibition at 1 µM [9] [%] | Penile Erection ICV [12] | Penile Erection IV [12] | other results
4 | C[C@@H]1CN(C(=O)[C@H](N)Cc2ccc(Cl)cc2Cl)[C@@H](CCCNC(=N)N)CN1CCc1ccc2ccccc2c1 [Example 11, N-{3-[1-[2(R)-Amino-3-(2,4-dichloro-phenyl)-propionyl]-5(R)-methyl-4-(2-naphthalen-2-yl-ethyl)-piperazin-2(S)-yl]-propyl}-guanidine] | None | 0.49 | 65 | 99 | 15.8 | 72 | 20 |  |  | functional status at MC1-R in cAMP assay [13]: inactive; functional status at MC3-R in cAMP assay [14]: inactive; functional status at MC5-R in cAMP assay [15]: inactive; EC50 [8]: 61 nM; maximal decrease in food intake ([16]; 3 mg/kg): 10%; maximal decrease in food intake ([16]; 10 mg/kg): 30%; functional status at MC4-R in cAMP assay ([11]; normal system, 1 μM concentration where stated): antagonist; maximal decrease in food intake ([17]; IP): 19%; maximal decrease in food intake ([17]; IV): 87%

— US20090081197A1 (Palatin Technologies, Inc., priority 2007, published 2009)
